Source: US10730857B2, “Benzocyanine compounds” (Pierce Biotechnology, Inc., priority 2011, dated 2020)
“Also recorded” adds a separate entry of the source.

Legend:
[1] = In vivo imaging with dye-labeled anti-CEA antibody; parameters: species or system nu/nu mice; details: dye conjugated to mouse anti-CEA antibody; i.v.; predicted results
Method: The inventive compounds are used for in vivo imaging as described in J. Gastrointest Surg (2008) 12:1938-1950. Briefly, human pancreatic cell lines are maintained in media supplemented with penicillin/streptomycin at 37° C. with 5% CO2. Mouse anti-CEA antibody and Control Mouse IgG (in PBS with 0.20% sodium azide) are conjugated to V08-15173. The dye is reconstituted at 10 mg/ml in DMF and then added to the antibody at a 10 molar excess. The reaction is carried out for one hour at room temperature. The samples are then dialyzed against 3×2 L of PBS. The cell lines are plated in 96-well plates at 5×10^4 cells per well. After 48 hours culture in appropriate media, the cells are incubated with 1 μg of V08-15173 labeled anti-CEA antibody or V08-15173-labeled control mouse IgG for four hours at 37° C. The cells are then washed three times with PBS and then imaged with an inverted Nikon De-485 microscope and Spot camera RD.
Surgical procedures and intravital imaging are performed with the animals anesthesized by intramuscular injection of 0.02 ml of 50% ketamine, 38% xylazine and 12 acepromazine maleate. Human pancreatic and colorectal cancer cell lines are harvested by trypsinization and washed twice with serum free medium […]. Cells (1×10^6 in 100 μl of serum-free media) are injected subcutaneously within 30 minutes of harvesting over the right flank in female nu/nu mice between 4-6 weeks of age. Subcutaneous tumors are allowed to grow for 7-14 days until they reached diameter of 1-2 mm prior to the delivery of conjugated antibody. For ASPC-1 implants, the cells are harvested by trypsinization and washed 3× in serum-free media. […]. The cells are resuspended in serum-free media at 5×10^6/ml. A volume of 200 μl of the cell suspension is then injected directly into the peritoneal cavity within 30 minutes of harvesting.
For antibody delivery, one to two weeks after subcutaneous, orthotopic, or intraperitoneal tumor implantation, animals are given intravenous (i.v.) injection of either conjugated anti-CEA or conjugated control IgG antibody diluted in PBS to a final volume of 100 μl. All i.v. injections are done via the tail vein. For the dose-response experiment, the antibody dose is 75 μg. For the in vivo time course, the animals are anesthesized and imaged at 30 min, 1, 2, 6, 24 hours and 8 and 15 days after systemic antibody delivery.
The inventive compounds are used for in vivo imaging as described in J. Gastrointest Surg (2008) 12:1938-1950. Briefly, human pancreatic cell lines are maintained in media supplemented with penicillin/streptomycin at 37° C. with 5% CO2. Mouse anti-CEA antibody and Control Mouse IgG (in PBS with 0.20% sodium azide) are conjugated to 779 Compound 1. […]

[2] = test system: rabbit IgG immunoglobulin; assay: Plate functional assay of dye-GAR conjugates; format: binding; details: FIG. 14 summary Raw Fluorescence Intensity
Method: Performance of the dye-GAM conjugates, dye-GAR conjugates, and dye-SA conjugates was evaluated in a functional assay. Wells of a 96 white opaque plate or black clear-bottom plate were coated with target proteins mouse IgG immunoglobulin, rabbit IgG immunoglobulin, or biotinylated bovine serum albumin (BBSA). One hundred μl mouse or rabbit IgG, or BBSA at a concentration of 10 μg/ml was applied to the corresponding wells in columns 1 and 2. The target proteins were serially diluted 1:1 from the wells in columns 2 to 11 using 100 μl PBS. One hundred μl of the samples from the wells in column 11 were discarded. One hundred μl PBS was added to the wells in column 12. The plates were incubated overnight at 4° C. and then blocked 2×200 μl with Thermo Scientific SuperBlock® Blocking Buffer. The coated plates were washed 2×200 μl with PBS-Tween and 1×200 μl with PBS. Based on the calculated concentrations, conjugates were diluted 1:250 in PBS, added to the corresponding plates (100 μl/well) and then incubated for one hour in the dark. The plates were washed with 2×200 μl with PBS-Tween and 1×200 μl with PBS and filled with PBS buffer (100 μl/well) prior to scanning the white opaque plates on Tecan Safire using 679 nmexcitation/702 nmemission or scanning the black clear-bottom plates on LiCor Odyssey at 700 channel, to detect fluorescence intensity.

[3] = Absorbance/emission spectral properties and fluorescence intensity of the dyes; format: physicochemical; details: second property table of Example 6; NHS ester forms
Method: Emission/excitation profiles for inventive and commercial compounds was determined by reconstituting the compounds in DMF at 10 mg/ml and then diluting in PBS buffer pH 7.2 to 10 μg/ml.

[4] = test system: lamin A in U20S cells; assay: Immunofluorescence detection of lamin A in U20S cells (FIG. 20A-C and repeat); format: cell-based; details: for S/B 2.5 X: 2.5 X molar excess
Method: In the indicated experiments, the inventive compounds and commercial dye were evaluated for immunofluorescence in a cell based assay using the following protocol. Frozen U20S cell plates which were stored at −80° C. were thawed for 45 minutes at 50° C. Storage buffer (PBS) was removed and the cells were permeabilized for 15 minutes with 0.1% Triton-X100 in 1×PBS buffer (100 μl/well). The cell plate was blocked for 60 minutes in 2% BSA/PBS-0.1% Triton-X100. Primary antibody, either rat anti-Grp94 (5 μg/ml), mouse anti-lamin A (10 μg/ml), or rabbit anti-lamin B1 (10 μg/ml), diluted in 2% BSA/PBS-0.1% Triton-X100 was added to the plate and incubated for 1 hour at room temperature. Control wells contained only 2% BSA/PBS-0.1% Triton-X100 blocker. After incubation, the antibody solution was removed from the plate and the plate was washed three times with 100 μl/well of PBS-0.5% Tween-20 and one time with 100 μl/well PBS. GARat, GAM, or GAR secondary antibodies labeled with various molar excess of the inventive or commercial compound were diluted to 4 μg/ml in PBS and incubated for 1 hour at room temperature. The plates were washed three times with 100 μl/well of PBST and once with 100 μl/well PBS, and Hoechst (diluted to 0.1 μg/ml in PBS) was added to each well (100 μl/well). The plates were scanned on ArrayScan Plate Reader or ToxInsight Instrument.

## COCCOCCOCCOCC[N+]1=C(/C=C/C=C/C=C2/N(CCOCCOCCOCCOCCC(=O)ON3C(=O)CCC3=O)c3ccc4c(S(=O)(=O)[O-])cc(S(=O)(=O)O)cc4c3C2(C)CCOCCOCCOCCOC)C(C)(CCOCCOCCOCCOC)c2c1ccc1c(S(=O)(=O)O)cc(S(=O)(=O)O)cc21 (stereo not shown) [Compound V08-15173]
[1]
  Ex vivo analysis of the vital organs: presence of dye predominantly in the liver with some signal detected in the spleen intestines and lungs
  post-experiment surgical exposure: accumulation of dye: accumulation of dye in the liver, bladder, and a region of inflammation in the subcutaneous tissue
[2]
  quenching at 1000 ng/well at 25× (in words): no apparent quenching
[3]
  Em: 706 nm
  Ex: 684 nm
[4]; GAM conjugate
  S/B 2.5 X: 2.9
[4]; GAM conjugate, 5.0 X molar excess
  S/B 5.0 X: 4.9
[4]; GAM conjugate, 7.5 X molar excess
  S/B 7.5 X: 6.0
[4]; GAM conjugate, 10 X molar excess
  S/B 10 X: 4.9
[4]; GAM conjugate, 15 X molar excess
  S/B 15 X: 4.6
[4]; GAM conjugates, FIG. 20A-C
  non-specific binding / specificity (in words): a minimal amount of non-specific binding; also recorded: little non-specific binding
[4]; no primary antibody, 7.5 X molar excess
  Mean Total Intensity, Negative control, 7.5 X: 7100
[4]; repeat experiment
  S/B 2.5 X: 9.8
